Assay results taken from patent US20230150946A1, “HETEROCYCLE CONTAINING STAT INHIBITORS AND COMPOSITIONS” (JANPIX LIMITED, priority 2020, published 2023).
Read-outs that look alike come from different tables or passages of the source.

Tests used:
MV4-11 cells = experiment: MV4-11 Cell Cytotoxicity Assay (CellTiter-Blue, 72 h); type: cell-based, human; details: 72 h at 37° C.
Procedure: In some embodiments, the potency of the STAT5 inhibitors are evaluated by an in vitro assay such as MV4-11 Cell Cytotoxicity Assay. MV4-11 cells were grown in Iscove's Modified Dulbecco's Medium (IMDM) supplemented with 10% fetal bovine serum (FBS). 10,000 cells were plated per well in 96-well flat-bottom sterile culture plates with low-evaporation lids. After 24 h, inhibitors and a vehicle control (0.5% DMSO) were added and the cells were incubated for 72 h at 37° C. in 5% CO2. Inhibitors were examined in triplicate at a maximal concentration of 50 μM, followed by 1:2 dilutions in subsequent wells (25, 12.5, 6.25, 3.125, 1.5625, 0.78125, 0.390625, 0.195313 and 0.097656 μM). After 72 h, the wells were treated with CellTiter-Blue® (20 μL/well), and the plates were incubated using standard cell culture conditions for 1 hour. Fluorescence was measured at 560/590 nm.

[1] = Reactivity Profiling with Glutathione (GSH), HPLC; type: in vitro ADME; details: 5 mM glutathione (GSH) in cell culture medium, 25 μM inhibitor, IMDM 10% FBS, 0.5% DMSO, 25° C., read-out: T1/2-GSH
Procedure: In some embodiments, metabolic stability of the compounds are evaluated according to their reactivity profiles with GSH.
3.5 μL of 5 mM stocking solution of the inhibitors in DMSO was added to 697.5 μL of Iscove's Modified Dulbecco's Medium (IMDM) supplemented with 10% FBS and antibiotic antimycotic solution, with 5 mM glutathione to afford a final concentration of 25 μM inhibitor with 0.5% DMSO. The solution was then immediately placed in the sample tray at 25° C. Sample was analyzed at pre-defined intervals, typically every 1.5 hours, for up to four injections, by HPLC, included at time zero, without further pre-treatment. For each inhibitor, its peak is integrated at different time points and compared to the time zero injection in order to obtain a percentage remaining. Half-life is calculated according to a first order reaction kinetic taking into account those time points for which remaining percentage of inhibitor is above 40%, using the formula: t½=Ln(2)/k, where k is the slope of the linear plot of Ln[Inhibitor] vs time, according to the formula: Ln[A]=Ln[A]0−kt, where [A] is the value resulting from the integration at each time point, [A]0 the value at time zero, and t the time. For each inhibitor, both replicates are averaged and the resulting t½ reported. Selective reactivity against GSH in particular is confirmed by incubation of the inhibitor in the same solution without the presence of GSH, and single analysis after a time longer than the latest time point analyzed for the samples with GSH.

[2] = Homo sapiens, Table 3, read-out: IC50-MV-4-11

Compound | IC50 (MV4-11 cells; [2]) [µM] | half-life at 25 μM [1] [h] | further results
CC(C)(C)c1cc(CN(C(=O)CN(Cc2ccc(Cl)cc2)S(=O)(=O)c2c(F)c(F)c(F)c(F)c2F)c2cccnc2)cc(C2CC2)c1 [Compound 1001, N-(3-(tert-butyl)-5-cyclopropylbenzyl)-2-(N-(4-chlorobenzyl)-(2,3,4,5,6-pentafluorophenyl)sulfonamido)-N-(pyridin-3-yl) acetamide] | 1 to 3.16 | – | –
CC(C)(C)c1cc(CN(C(=O)CN(Cc2ccc(Cl)cc2)S(=O)(=O)c2c(F)c(F)c(F)c(F)c2F)c2ccc(O)nc2)cc(C2CC2)c1 [Compound 1002, N-(3-(tert-butyl)-5-cyclopropylbenzyl)-2-(N-(4-chlorobenzyl)-(2,3,4,5,6-pentafluorophenyl)sulfonamido)-N-(6-hydroxypyridin-3-yl) acetamide] | 1 to 3.16 | 9.23 to 1670 | –
CC(C)(C)c1cc(CN(C(=O)CN(Cc2ccc(Cl)cc2)S(=O)(=O)c2c(F)c(F)c(F)c(F)c2F)c2ccc(C(=O)O)nc2)cc(C2CC2)c1 [Compound 1004, 5-(N-(3-(tert-butyl)-5-cyclopropylbenzyl)-2-(N-(4-chlorobenzyl)-(2,3,4,5,6-pentafluorophenyl)sulfonamido)acetamido) picolinic acid] | 3.16 to 100 | – | –
COc1ccc(N(Cc2cc(C3CC3)cc(C(C)(C)C)c2)C(=O)CN(Cc2ccc(Cl)cc2)S(=O)(=O)c2c(F)c(F)c(F)c(F)c2F)cn1 [Compound 1005, N-(3-(tert-butyl)-5-cyclopropylbenzyl)-2-(N-(4-chlorobenzyl)-(2,3,4,5,6-pentafluorophenyl)sulfonamido)-N-(6-methoxypyridin-3-yl) acetamide] | 3.16 to 100 | – | –
CC(C)(C)c1cc(CN(C(=O)CN(Cc2ccc(Cl)cc2)S(=O)(=O)c2c(F)c(F)c(F)c(F)c2F)c2cnc(N)nc2)cc(C2CC2)c1 [Compound 1006, N-(2-aminopyrimidin-5-yl)-N-(3-(tert-butyl)-5-cyclopropylbenzyl)-2-(N-(4-chlorobenzyl)-(2,3,4,5,6-pentafluorophenyl)sulfonamido)acetamide] | 1 to 3.16 | 9.23 to 1670 | –
CC(C)(C)c1cc(CN(C(=O)CN(Cc2ccc(Cl)cc2)S(=O)(=O)c2c(F)c(F)c(F)c(F)c2F)c2ccc(N)nc2)cc(C2CC2)c1 [Compound 1007, N-(6-aminopyridin-3-yl)-N-(3-(tert-butyl)-5-cyclopropylbenzyl)-2-(N-(4-chlorobenzyl)-(2,3,4,5,6-pentafluorophenyl)sulfonamido)acetamide] | 1 to 3.16 | – | –
CC(C)(C)c1cc(CN(C(=O)CN(Cc2ccccc2F)S(=O)(=O)c2c(F)c(F)c(F)c(F)c2F)c2ccc(N)nc2)cc(C2CC2)c1 [Compound 1008, N-(6-aminopyridin-3-yl)-N-(3-(tert-butyl)-5-cyclopropylbenzyl)-2-(N-(2-fluorobenzyl)-(2,3,4,5,6-pentafluorophenyl)sulfonamido)acetamide] | 1 to 3.16 | – | –
CC(C)(C)c1cc(CN(C(=O)CN(Cc2ccccc2F)S(=O)(=O)c2c(F)c(F)c(F)c(F)c2F)c2cnc(N)nc2)cc(C2CC2)c1 [Compound 1009, N-(2-aminopyrimidin-5-yl)-N-(3-(tert-butyl)-5-cyclopropylbenzyl)-2-(N-(2-fluorobenzyl)-(2,3,4,5,6-pentafluorophenyl)sulfonamido)acetamide] | 1e-05 to 1 | 4.12 to 9.23 | –
CN(C)c1c(NCCN(Cc2cc(C3CC3)cc(C(C)(C)C)c2)C(=O)CN(Cc2ccccc2F)S(=O)(=O)c2c(F)c(F)c(F)c(F)c2F)c(=O)c1=O [Compound 1010, N-(3-(tert-butyl)-5-cyclopropylbenzyl)-N-(2-((2-(dimethylamino)-3,4-dioxocyclobut-1-en-1-yl)amino)ethyl)-2-(N-(2-fluorobenzyl)-(2,3,4,5,6-pentafluorophenyl)sulfonamido)acetamide] | 1e-05 to 1 | 9.23 to 1670 | –
CN(C)c1c(NCCN(Cc2cc(C3CC3)cc(C(C)(C)C)c2)C(=O)CN(Cc2c(F)cc(F)cc2F)S(=O)(=O)c2c(F)c(F)c(F)c(F)c2F)c(=O)c1=O [Compound 1011, N-(3-(tert-butyl)-5-cyclopropylbenzyl)-N-(2-((2-(dimethylamino)-3,4-dioxocyclobut-1-en-1-yl)amino)ethyl)-2-(N-(2,4,6-trifluorobenzyl)-(2,3,4,5,6-pentafluorophenyl)sulfonamido)acetamide] | 1e-05 to 1 | – | –
CN(C)c1c(NCCN(Cc2cc(C3CC3)cc(C(C)(C)C)c2)C(=O)CN(Cc2cnccc2C(F)(F)F)S(=O)(=O)c2c(F)c(F)c(F)c(F)c2F)c(=O)c1=O [Compound 1012, N-(3-(tert-butyl)-5-cyclopropylbenzyl)-N-(2-((2-(dimethylamino)-3,4-dioxocyclobut-1-en-1-yl)amino)ethyl)-2-(N-((4-(trifluoromethyl)pyridin-3-yl)methyl)-(2,3,4,5,6-pentafluorophenyl)sulfonamido)acetamide] | 1e-05 to 1 | 4.12 to 9.23 | –
CNc1c(NCCN(Cc2cc(C3CC3)cc(C(C)(C)C)c2)C(=O)CN(Cc2ccccc2F)S(=O)(=O)c2c(F)c(F)c(F)c(F)c2F)c(=O)c1=O [Compound 1013, N-(3-(tert-butyl)-5-cyclopropylbenzyl)-N-(2-((2-(methylamino)-3,4-dioxocyclobut-1-en-1-yl)amino)ethyl)-2-(N-(2-fluorobenzyl)-(2,3,4,5,6-pentafluorophenyl)sulfonamido)acetamide] | 1e-05 to 1 | 9.23 to 1670 | –
CN(C)c1c(N(C)CCN(Cc2cc(C3CC3)cc(C(C)(C)C)c2)C(=O)CN(Cc2ccccc2F)S(=O)(=O)c2c(F)c(F)c(F)c(F)c2F)c(=O)c1=O [Compound 1014, N-(3-(tert-butyl)-5-cyclopropylbenzyl)-N-(2-((2-(dimethylamino)-3,4-dioxocyclobut-1-en-1-yl) (methyl)amino)ethyl)-2-(N-(2-fluorobenzyl)-(2,3,4,5,6-pentafluorophenyl)sulfonamido)acetamide] | 1e-05 to 1 | 9.23 to 1670 | –
CN(C)c1c(NCCCN(Cc2cc(C3CC3)cc(C(C)(C)C)c2)C(=O)CN(Cc2ccccc2F)S(=O)(=O)c2c(F)c(F)c(F)c(F)c2F)c(=O)c1=O [Compound 1015, N-(3-(tert-butyl)-5-cyclopropylbenzyl)-N-(3-((2-(dimethylamino)-3,4-dioxocyclobut-1-en-1-yl)amino)propyl)-2-(N-(2-fluorobenzyl)-(2,3,4,5,6-pentafluorophenyl)sulfonamido)acetamide] | 1e-05 to 1 | – | –
CNc1c(N(C)CCN(Cc2cc(C3CC3)cc(C(C)(C)C)c2)C(=O)CN(Cc2ccccc2F)S(=O)(=O)c2c(F)c(F)c(F)c(F)c2F)c(=O)c1=O [Compound 1016, N-(3-(tert-butyl)-5-cyclopropylbenzyl)-N-(2-(methyl(2-(methylamino)-3,4-dioxocyclobut-1-en-1-yl)amino)ethyl)-2-(N-(2-fluorobenzyl)-(2,3,4,5,6-pentafluorophenyl)sulfonamido)acetamide] | 1e-05 to 1 | – | –
CC(C)(C)c1cc(CN(C(=O)CN(Cc2cnccc2C(F)(F)F)S(=O)(=O)c2c(F)c(F)c(F)c(F)c2F)c2cnc(N)nc2)cc(C2CC2)c1 [Compound 1017, N-(2-aminopyrimidin-5-yl)-N-(3-(tert-butyl)-5-cyclopropylbenzyl)-2-(N-((4-(trifluoromethyl)pyridin-3-yl)methyl)-(2,3,4,5,6-pentafluorophenyl)sulfonamido)acetamide] | 1e-05 to 1 | – | –
CC(C)(C)c1cc(CN(C(=O)CN(Cc2ccc(Cl)cc2)S(=O)(=O)c2c(F)c(F)c(F)c(F)c2F)C2=CNC(=O)NC2)cc(C2CC2)c1 [Compound 1018, N-(3-(tert-butyl)-5-cyclopropylbenzyl)-2-(N-(4-chlorobenzyl)-(2,3,4,5,6-pentafluorophenyl)sulfonamido)-N-(2-oxo-1,2,3,4-tetrahydropyrimidin-5-yl)acetamide] | – | – | IC50 (MV4-11 cells; Homo sapiens, Table 4, read-out: IC50-MV-4-11): 1 to 3.16 µM
N-(3-(tert-butyl)-5- cyclopropylbenzyl)-2-(N-(4- chlorobenzyl)-(2,3,4,5,6- pentafluorophenyl) sulfonamido)-N-(2- methoxypyrimidin-5-yl) acetamide [Compound 1003] | – | – | IC50 (MV4-11 cells; Table 3, read-out: IC50-MV-4-11): 1 to 3.16 µM
